In patent US8314256B2, “Modulators of ATP-binding cassette transporters” (Vertex Pharmaceuticals Incorporated, priority 2005, dated 2012):
pEC50: −log10 of the molar value.

Each molecule was assayed against T1, ΔF508-CFTR (Homo sapiens, UniProt P13569, DEL508-508) (assay: Membrane potential optical assay of ΔF508-CFTR modulation (Table 3 EC50; the table does not name the assay)).
T1 construct: expressed in transfected cells
T1 sequence (P13569 with tags, fused parts or gaps DEL508-508): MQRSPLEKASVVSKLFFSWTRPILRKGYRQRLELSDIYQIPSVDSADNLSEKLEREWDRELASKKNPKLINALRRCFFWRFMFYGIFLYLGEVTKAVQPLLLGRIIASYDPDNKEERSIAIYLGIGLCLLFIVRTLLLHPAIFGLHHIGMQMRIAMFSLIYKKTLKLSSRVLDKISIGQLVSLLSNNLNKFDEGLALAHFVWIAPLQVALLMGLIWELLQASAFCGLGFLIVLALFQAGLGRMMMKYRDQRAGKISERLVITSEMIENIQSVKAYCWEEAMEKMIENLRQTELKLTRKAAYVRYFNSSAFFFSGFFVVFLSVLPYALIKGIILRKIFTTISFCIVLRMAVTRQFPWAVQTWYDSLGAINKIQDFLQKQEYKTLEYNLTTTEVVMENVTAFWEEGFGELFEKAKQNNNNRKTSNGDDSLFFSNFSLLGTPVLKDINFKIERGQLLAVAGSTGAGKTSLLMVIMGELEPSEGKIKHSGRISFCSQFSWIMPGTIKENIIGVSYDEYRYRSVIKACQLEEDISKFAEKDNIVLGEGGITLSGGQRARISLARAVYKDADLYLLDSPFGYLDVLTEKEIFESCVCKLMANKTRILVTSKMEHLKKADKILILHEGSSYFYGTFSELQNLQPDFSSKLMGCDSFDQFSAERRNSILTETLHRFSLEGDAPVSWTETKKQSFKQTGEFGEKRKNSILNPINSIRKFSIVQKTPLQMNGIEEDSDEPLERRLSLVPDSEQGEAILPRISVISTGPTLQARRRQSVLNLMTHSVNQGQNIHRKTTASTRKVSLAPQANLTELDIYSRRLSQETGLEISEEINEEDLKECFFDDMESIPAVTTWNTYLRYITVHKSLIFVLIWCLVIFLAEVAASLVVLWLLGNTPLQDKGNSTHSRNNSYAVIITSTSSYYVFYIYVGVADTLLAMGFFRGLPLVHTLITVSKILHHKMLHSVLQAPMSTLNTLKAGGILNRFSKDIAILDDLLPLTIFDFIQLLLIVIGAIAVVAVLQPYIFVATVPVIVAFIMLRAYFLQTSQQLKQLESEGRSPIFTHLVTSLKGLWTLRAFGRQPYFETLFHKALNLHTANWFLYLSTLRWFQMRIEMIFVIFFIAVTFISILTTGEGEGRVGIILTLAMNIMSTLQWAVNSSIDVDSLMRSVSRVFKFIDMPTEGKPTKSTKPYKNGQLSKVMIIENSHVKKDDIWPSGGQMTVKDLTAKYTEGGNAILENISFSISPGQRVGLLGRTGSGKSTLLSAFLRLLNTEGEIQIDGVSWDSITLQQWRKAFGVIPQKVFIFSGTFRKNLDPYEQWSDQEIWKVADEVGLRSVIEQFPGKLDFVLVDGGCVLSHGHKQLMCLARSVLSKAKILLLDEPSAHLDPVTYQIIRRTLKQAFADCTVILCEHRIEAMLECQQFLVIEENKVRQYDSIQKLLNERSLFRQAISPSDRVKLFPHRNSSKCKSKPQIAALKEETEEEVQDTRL
Type: cell-based
Source text: Membrane Potential Optical Methods for Assaying ΔF508-CFTR Modulation Properties of Compounds
The optical membrane potential assay utilized voltage-sensitive FRET sensors described by Gonzalez and Tsien (See, Gonzalez, J. E. and R. Y. Tsien (1995) “Voltage sensing by fluorescence resonance energy transfer in single cells” Biophys J 69(4): 1272-80, and Gonzalez, J. E. and R. Y. Tsien (1997) “Improved indicators of cell membrane potential that use fluorescence resonance energy transfer” Chem Biol 4(4): 269-77) in combination with instrumentation for measuring fluorescence changes such as the Voltage/Ion Probe Reader (VIPR) (See, Gonzalez, J. E., K. Oades, et al. (1999) “Cell-based assays and instrumentation for screening ion-channel targets” Drug Discov Today 4(9): 431-439).
These voltage sensitive assays are based on the change in fluorescence resonant energy transfer (FRET) between the membrane-soluble, voltage-sensitive dye, DiSBAC2(3), and a fluorescent phospholipid, CC2-DMPE, which is attached to the outer leaflet of the plasma membrane and acts as a FRET donor. Changes in membrane potential (Vm) cause the negatively charged DiSBAC2(3) to redistribute across the plasma membrane and the amount of energy transfer from CC2-DMPE changes accordingly. The changes in fluorescence emission were monitored using VIPR II, which is an integrated liquid handler and fluorescent detector designed to conduct cell-based screens in 96- or 384-well microtiter plates.
Identification of Correction Compounds
To identify small molecules that correct the trafficking defect associated with ΔF508-CFTR; a single-addition HTS assay format was developed. The cells were incubated in serum-free medium for 16 hrs at 37° C. in the presence or absence (negative control) of test compound. As a positive control, cells plated in 384-well plates were incubated for 16 hrs at 27° C. to “temperature-correct” ΔF508-CFTR. The cells were subsequently rinsed 3× with Krebs Ringers solution and loaded with the voltage-sensitive dyes. To activate ΔF508-CFTR, 10 μM forskolin and the CFTR potentiator, genistein (20 μM), were added along with Cl^−-free medium to each well. The addition of Cl^−-free medium promoted Cl^− efflux in response to ΔF508-CFTR activation and the resulting membrane depolarization was optically monitored using the FRET-based voltage-sensor dyes.
Identification of Potentiator Compounds
To identify potentiators of ΔF508-CFTR, a double-addition HTS assay format was developed. During the first addition, a Cl^−-free medium with or without test compound was added to each well. After 22 sec, a second addition of Cl^−-free medium containing 2-10 μM forskolin was added to activate ΔF508-CFTR. The extracellular Cl^− concentration following both additions was 28 mM, which promoted Cl^− efflux in response to ΔF508-CFTR activation and the resulting membrane depolarization was optically monitored using the FRET-based voltage-sensor dyes. Solutions
NIH3T3 mouse fibroblasts stably expressing ΔF508-CFTR are used for optical measurements of membrane potential. The cells are maintained at 37° C. in 5% CO2 and 90% humidity in Dulbecco's modified Eagle's medium supplemented with 2 mM glutamine, 10% fetal bovine serum, 1×NEAA, […]-ME, 1× pen/strep, and 25 mM HEPES in 175 cm^2 culture flasks. For all optical assays, the cells were seeded at 30,000/well in 384-well matrigel-coated plates and cultured for 2 hrs at 37° C. before culturing at 27° C. for 24 hrs. for the potentiator assay. For the correction assays, the cells are cultured at 27° C. or 37° C. with and without compounds for 16-24 hours
With `O=C(NCCc1ccccc1)C(=O)c1c[nH]c2ccc(Br)cc12` [Compound 16] the pEC50 was > 6.00. A pEC50 of 5.30 to 6.00 was found for `O=C(NC(CSCc1ccccc1)CSCc1ccccc1)C(=O)c1c[nH]c2ccccc12` [Compound 17] in this work. A pEC50 of 5.30 to 6.00 was found for `Cn1cc(C(=O)C(=O)N(Cc2ccccc2)Cc2ccccc2)c2ccccc21` [Compound 15, N,N-Dibenzyl-2-(1-methyl-1H-indol-3-yl)-2-oxo-acetamide] in this work. For `Cn1cc(C(=O)C(=O)NCCc2ccccc2)c2ccccc21` [Compound 10, 2-(1-Methyl-1H-indol-3-yl)-2-oxo-N-phenethyl-acetamide], the pEC50 was < 5.30. In the case of `O=C(NC(CN1CCOCC1)c1ccccc1)C(=O)c1c[nH]c2ccccc12` (centres unmarked) [Compound 4], the pEC50 was < 5.30. In the case of `O=C(C(=O)N(Cc1ccccc1)Cc1ccccc1)c1c[nH]c2ccccc12` [Compound 5, N,N-Dibenzyl-2-(1H-indol-3-yl)-2-oxo-acetamide], the pEC50 was > 6.00. `CN(Cc1ccccc1)C(=O)C(=O)c1c[nH]c2ccccc12` [Compound 14, N-Benzyl-2-(1H-indol-3-yl)-N-methyl-2-oxo-acetamide] was tested, and the pEC50 was < 5.30. `O=C(NCC(c1ccccc1)c1ccccc1)C(=O)c1c[nH]c2ccccc12` [Compound 18, N-(2,2-Diphenylethyl)-2-(1H-indol-3-yl)-2-oxo-acetamide] was tested, and the pEC50 was > 6.00. A pEC50 of 5.30 to 6.00 was found for `CC(=O)Nc1ccc(OCCCNC(=O)C(=O)c2c[nH]c3ccc(Br)cc23)cc1` [Compound 8] in this work. For `O=C(NC(c1ccccc1)c1ccccc1)C(=O)c1c[nH]c2ccccc12` [Compound 1, N-Benzhydryl-2-(1H-indol-3-yl)-2-oxo-acetamide], the pEC50 was > 6.00. A pEC50 of 5.30 to 6.00 was found for `COc1ccc(CCNC(=O)C(=O)c2c[nH]c3ccc(Br)cc23)cc1` [Compound 13] in this work. For `Cc1ccc(Cn2cc(SCCNC(=O)C(=O)c3c[nH]c4ccccc34)c3ccccc32)cc1` [Compound 3], the pEC50 was > 6.00. With `Cn1cc(C(=O)C(=O)NCc2ccccc2)c2ccccc21` [Compound 9] the pEC50 was < 5.30. With `O=C(NCCc1ccccc1)C(=O)c1c[nH]c2ccccc12` [Compound 2, 2-(1H-Indol-3-yl)-2-oxo-N-phenethyl-acetamide] the pEC50 was > 6.00. A pEC50 of 5.30 to 6.00 was found for `COc1ccccc1N1CCN(C(=O)C(=O)c2c[nH]c3ccc(Br)cc23)CC1` [Compound 7] in this work. In the case of `Cn1cc(C(=O)C(=O)NC(c2ccccc2)c2ccccc2)c2ccccc21` [Compound 12, N-Benzhydryl-2-(1-methyl-1H-indol-3-yl)-2-oxo-acetamide], the pEC50 was < 5.30. For `O=C(NCc1ccccc1)C(=O)c1c[nH]c2ccccc12` [Compound 6], the pEC50 was > 6.00.
